Experimental data: US6737383B1, “Herbicidal oxadiazolidines” (priority 1999, dated 2004)

Legend:
corn = assay: Test B pre/postemergence corn; assay type: in vivo, Zea mays
Outline: (§1)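 Test chemicals in a non-phytotoxic solvent mixture with surfactant were sprayed preemergence onto planted seeds and postemergence onto plants 2 to 18 cm tall (1- to 4-leaf stage). After twelve to sixteen days in a greenhouse, injury was visually rated against untreated controls from 0 (no effect) to 10 (complete control).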

duck salad = assay: Test B flood test duck salad; assay type: in vivo, Heteranthera limosa
Outline: (§2)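 Flood test on plants grown to the 2-leaf stage; treated plants kept in greenhouse twelve to sixteen days, then visually rated against controls on a 0 (no effect) to 10 (complete control) scale.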

rape = assay: Test B pre/postemergence rape; assay type: in vivo, Brassica napus
Outline: as §1

wheat = assay: Test B pre/postemergence wheat; assay type: in vivo, Triticum aestivum
Outline: as §1

rice = assay: Test B flood test rice; assay type: in vivo, Oryza sativa
Outline: as §2

cocklebur = assay: Test B pre/postemergence cocklebur; assay type: in vivo, Xanthium strumarium
Outline: as §1

wild oat = assay: Test B pre/postemergence wild oat; assay type: in vivo, Avena fatua
Outline: as §1

velvetleaf = assay: Test B pre/postemergence velvetleaf; assay type: in vivo, Abutilon theophrasti
Outline: as §1

bedstraw = assay: Test B pre/postemergence bedstraw; assay type: in vivo, Galium aparine
Outline: as §1

sugar beet = assay: Test B pre/postemergence sugar beet; assay type: in vivo, Beta vulgaris
Outline: as §1

surinam grass = assay: Test B pre/postemergence surinam grass; assay type: in vivo, Brachiaria decumbens
Outline: as §1

pigweed = assay: Test B pre/postemergence pigweed; assay type: in vivo, Amaranthus retroflexus
Outline: as §1

smallflower flatsedge = assay: Test B flood test smallflower flatsedge; assay type: in vivo, Cyperus difformis
Outline: as §2

soybean = assay: Test B pre/postemergence soybean; assay type: in vivo, Glycine max
Outline: as §1

purple nutsedge = assay: Test B pre/postemergence purple nutsedge; assay type: in vivo, Cyperus rotundus
Outline: as §1

giant foxtail = assay: Test B pre/postemergence giant foxtail; assay type: in vivo, Setaria faberii
Outline: as §1

[1] = Postemergence, Rate 62 g/ha, scale 0 to 10, 0 is no effect, 10 is complete control
[2] = Postemergence, Rate 250 g/ha, scale 0 to 10, 0 no effect, 10 complete control
[3] = Preemergence, Rate 31 g/ha, visual rating, scale 0 to 10 (0 no effect, 10 complete control)
[4] = Preemergence, Rate 62 g/ha, scale 0 to 10, 0 is no effect, 10 is complete control
[5] = Preemergence, Rate 125 g/ha, scale 0 to 10 (0 no effect, 10 complete control)
[6] = Preemergence, Rate 250 g/ha, scale of 0 to 10 where 0 is no effect and 10 is complete control
[7] = Rate 31 g/ha, Postemergence, scale 0 to 10
[8] = Rate 125 g/ha, Postemergence, scale 0 to 10, 0 no effect, 10 complete control
[9] = Rate 125 g/ha, Postemergence section (flood test species), scale 0 to 10, 0 no effect, 10 complete control
[10] = Rate 500 g/ha, Postemergence section of Table B, 0 to 10 scale (0 no effect, 10 complete control)
[11] = flood test, listed under Postemergence, Rate 250 g/ha, scale 0 to 10, 0 no effect, 10 complete control

CCN(C(=O)n1oc(=O)n(-c2ccc(C)cc2C)c1=O)C1CCCCC1 [Compound 26]
Corn plant response rating (corn; [1]): 0 | Corn plant response rating (corn; [2]): 0 | Corn plant response rating (corn; [3]): 0 | Plant response rating, Corn (corn; [4]): 0 | Plant response rating, Corn (corn; [5]): 0 | Plant response rating, Corn (corn; [6]): 0 | Corn plant response rating (corn; [7]): 0 | Corn plant response rating (corn; [8]): 0 | Ducksalad plant response rating (duck salad; [1]): 0 | Ducksalad plant response rating (duck salad; [9]): 0 | Ducksalad plant response rating (duck salad; [10]): 0 | Ducksalad plant response rating (duck salad; [11]): 0 | Rape plant response rating (rape; [1]): 0 | Rape plant response rating (rape; [2]): 0 | Rape plant response rating (rape; [3]): 0 | Plant response rating, Rape (rape; [4]): 0 | Plant response rating, Rape (rape; [5]): 0 | Plant response rating, Rape (rape; [6]): 0 | Rape plant response rating (rape; [7]): 0 | Rape plant response rating (rape; [8]): 0 | Wheat plant response rating (wheat; [1]): 0 | Wheat plant response rating (wheat; [2]): 0 | Wheat plant response rating (wheat; [3]): 0 | Plant response rating, Wheat (wheat; [4]): 0 | Plant response rating, Wheat (wheat; [5]): 0 | Plant response rating, Wheat (wheat; [6]): 0 | Wheat plant response rating (wheat; [8]): 0 | Rice plant response rating (rice; [1]): 0 | Rice plant response rating (rice; [9]): 0 | Rice plant response rating (rice; [10]): 0 | Rice plant response rating (rice; [11]): 0 | Cocklebur plant response rating (cocklebur; [1]): 0 | Cocklebur plant response rating (cocklebur; [2]): 0 | Cocklebur plant response rating (cocklebur; [3]): 0 | Plant response rating, Cocklebur (cocklebur; [4]): 0 | Plant response rating, Cocklebur (cocklebur; [5]): 0 | Plant response rating, Cocklebur (cocklebur; [6]): 0 | Cocklebur plant response rating (cocklebur; [7]): 0 | Cocklebur plant response rating (cocklebur; [8]): 0 | Wild oats plant response rating (wild oat; [1]): 0 | Wild oats plant response rating (wild oat; [2]): 0 | Wild oats plant response rating (wild oat; [3]): 0 | Plant response rating, Wild oats (wild oat; [5]): 0 | Plant response rating, Wild oats (wild oat; [6]): 0 | Wild oats plant response rating (wild oat; [8]): 0 | Velvetleaf plant response rating (velvetleaf; [1]): 0 | Velvetleaf plant response rating (velvetleaf; [2]): 0 | Velvetleaf plant response rating (velvetleaf; [3]): 0 | Plant response rating, Velvetleaf (velvetleaf; [4]): 0 | Plant response rating, Velvetleaf (velvetleaf; [5]): 0 | Plant response rating, Velvetleaf (velvetleaf; [6]): 0 | Velvetleaf plant response rating (velvetleaf; [8]): 0 | Bedstraw plant response rating (bedstraw; [1]): 0 | Bedstraw plant response rating (bedstraw; [2]): 0 | Bedstraw plant response rating (bedstraw; [3]): 0 | Plant response rating, Bedstraw (bedstraw; [4]): 0 | Plant response rating, Bedstraw (bedstraw; [5]): 0 | Plant response rating, Bedstraw (bedstraw; [6]): 0 | Bedstraw plant response rating (bedstraw; [7]): 0 | Bedstraw plant response rating (bedstraw; [8]): 0 | Sugarbeets plant response rating (sugar beet; [1]): 0 | Sugarbeets plant response rating (sugar beet; [2]): 0 | Sugarbeets plant response rating (sugar beet; [3]): 0 | Plant response rating, Sugarbeets (sugar beet; [4]): 0 | Plant response rating, Sugarbeets (sugar beet; [5]): 0 | Plant response rating, Sugarbeets (sugar beet; [6]): 0 | Sugarbeets plant response rating (sugar beet; [8]): 0 | B. signalgrass plant response rating (surinam grass; [1]): 0 | B. signalgrass plant response rating (surinam grass; [2]): 0 | B. signalgrass plant response rating (surinam grass; [3]): 0 | Plant response rating, B. signalgrass (surinam grass; [4]): 0 | Plant response rating, B. signalgrass (surinam grass; [5]): 0 | Plant response rating, B. signalgrass (surinam grass; [6]): 2 | B. signalgrass plant response rating (surinam grass; [7]): 0 | B. signalgrass plant response rating (surinam grass; [8]): 0 | Redroot pigweed plant response rating (pigweed; [1]): 0 | Redroot pigweed plant response rating (pigweed; [2]): 0 | Redroot pigweed plant response rating (pigweed; [3]): 0 | Plant response rating, Redroot pigweed (pigweed; [4]): 0 | Plant response rating, Redroot pigweed (pigweed; [5]): 0 | Plant response rating, Redroot pigweed (pigweed; [6]): 0 | Redroot pigweed plant response rating (pigweed; [7]): 0 | Redroot pigweed plant response rating (pigweed; [8]): 0 | S. Flatsedge plant response rating (smallflower flatsedge; [1]): 0 | S. Flatsedge plant response rating (smallflower flatsedge; [9]): 0 | S. Flatsedge plant response rating (smallflower flatsedge; [11]): 0 | Soybean plant response rating (soybean; [1]): 1 | Soybean plant response rating (soybean; [2]): 2 | Soybean plant response rating (soybean; [3]): 0 | Plant response rating, Soybean (soybean; [4]): 0 | Plant response rating, Soybean (soybean; [5]): 0 | Plant response rating, Soybean (soybean; [6]): 0 | Soybean plant response rating (soybean; [8]): 1 | Nutsedge plant response rating (purple nutsedge; [1]): 0 | Nutsedge plant response rating (purple nutsedge; [2]): 0 | Nutsedge plant response rating (purple nutsedge; [3]): 0 | Plant response rating, Nutsedge (purple nutsedge; [4]): 0 | Plant response rating, Nutsedge (purple nutsedge; [5]): 0 | Plant response rating, Nutsedge (purple nutsedge; [6]): 0 | Nutsedge plant response rating (purple nutsedge; [7]): 0 | Nutsedge plant response rating (purple nutsedge; [8]): 0 | Giant foxtail plant response rating (giant foxtail; [1]): 0 | Giant foxtail plant response rating (giant foxtail; [2]): 0 | Giant foxtail plant response rating (giant foxtail; [3]): 0 | Plant response rating, Giant foxtail (giant foxtail; [4]): 0 | Plant response rating, Giant foxtail (giant foxtail; [5]): 0 | Plant response rating, Giant foxtail (giant foxtail; [6]): 4 | Giant foxtail plant response rating (giant foxtail; [7]): 0 | Giant foxtail plant response rating (giant foxtail; [8]): 0
